Values belong to the molecule of their own block, whether it stands above or below them.
Key:
human recombinant GCPII = human recombinant GCPII (Homo sapiens, UniProt Q04609); experiment: GCPII activity assay (radioactivity-based, NAA-[3H]-G); format: biochemical; conditions: for IC50: human recombinant GCPII
Method: Inhibition potencies against GCPII (IC50 values) were determined using previously described methods with minor modifications. Briefly, reactions were carried out in the presence of NAA-[^3H]-G and human recombinant GCPII enzyme in Tris-HCl and CoCl2 at 37 °C for 20 min. Reactions were stopped with ice-cold sodium phosphate buffer containing 1 mM EDTA. Aliquots were then transferred to 96-well spin columns containing AG1X8 ion-exchange resin and centrifuged. NAA-[^3H]-G was bound to the resin and [^3H]-G eluted in the flow-through. Columns were washed with formate to ensure complete elution of [^3H]-G. The flow-through and the washes were collected, and aliquots were transferred and dried to completion in a solid scintillator-coated 96-well plate. The radioactivity corresponding to [^3H]-G was determined with a scintillation counter. Subsequently, IC50 curves were generated from CPM results.
The inhibitory potencies of the catechols were determined using a modified radioactivity-based assay involving human recombinant GCPII enzyme as previously reported. Based on literature reports of catecholic moieties binding to zinc metalloproteases, we tested the potency of L-DOPA (1) against GCPII activity and discovered that it is a submicromolar inhibitor. […] This prompted us to evaluate analogs of L-DOPA (Table 1) to determine the essential structural features responsible for its GCPII inhibitory activity. […] Subsequently, we tested L-DOPA analogs retaining the catechol moiety (compounds 5–10). […] Taken together, these structure–activity relationship (SAR) studies highlight the critical role played by the catechol and carboxylate groups of L-DOPA in GPCII inhibition as well as the insignificant contribution of the alpha amino group.

[1] = Metabolic stability in mouse plasma; format: in vitro ADME; conditions: 37 °C, 60 min
Method: (§1) Briefly, brain homogenates were prepared by adding 9X of 0.1 M potassium phosphate buffer to weighed tissue and homogenization using a probe sonicator. Plasma and crude brain homogenate (1 mL each) were spiked with the analyte to give a final concentration of 10 µM and then incubated at 37 °C for 1 h. At predetermined time points (0, 30, and 60 min), an aliquot from each matrix was quenched with 3X volume of acetonitrile containing the internal standard (IS; losartan: 0.5 μM) and vortex-mixed for 30 s. The final mixtures were centrifuged at 10,000× g for 10 min at 4 °C and supernatants were used for LC-MS analyses.
(§2) The samples were analyzed using a Dionex Ultimate 3000 ultra-high-performance LC system coupled with a Q Exactive Focus orbitrap mass spectrometer (Thermo Fisher Scientific Inc., Waltham MA, USA) operated with a heated electrospray ionization (HESI) ion source. […] The mass spectrometer was operated in switching ionization mode to collect both positive and negative molecular ions while being controlled by Xcalibur software 4.0.27.13 (Thermo Scientific). Analytes were quantified and the disappearance of the respective catechols was monitored in the full-scan mode (from m/z 50 to 1600) by comparing samples at the different time-points.

in vitro = in vitro ADME; conditions: mouse, brain homogenate
Method: as §1, §2

[2] = Metabolite identification (MET-ID) in spiked brain homogenate; format: in vitro ADME, mouse; conditions: 30 min post-spike
[3] = Initial two time-point pharmacokinetic study in mice; format: in vivo, mouse; conditions: 50 mg/kg PO; for brain levels: at both time points (30 and 60 min); for concentration at 30 min: 30 min post dose
Method: For in vivo PK studies, male CD-1 mice (Harlan Laboratories, Indianapolis, IN, USA) weighing 25-30 g were used. The mice were maintained on a 12 h light-dark cycle with ad libitum access to food and water. […] Brains were dissected and immediately flash frozen (-80 °C). […] Caffeic acid was analyzed underivatized. […] Plasma and brain tissue samples were processed by matching dilutions of the calibration standards. […] Then, 2 μL of the sample was analyzed using LC/MS/MS system. […] Plasma and brain tissue samples were processed by matching the dilutions of calibration standards of the respective tissues. […] The solutions were vortexed for 15 s and then allowed to sit at room temperature for 45 min. These mixtures were vortexed again for 10 s and centrifuged at 10,000× g for 10 min to collect the supernatant. Then, 2 μL of the sample was injected into the LC/MS/MS system for analysis. Chromatographic analysis was performed using a Thermo Scientific Vanquish UPLC system consisting of an analytical pump and an autosampler coupled with a […] spectrometer. […] The mobile phase was delivered as a gradient at a flow rate of 0.400 mL/min. […] The analyte was monitored using a ThermoScientific […] triple-quadrupole mass-spectrometric detector equipped with an electrospray interface, and operated in negative ion mode. The instrument was controlled by Thermo Scientific Xcalibur (version 4.2.47) software.

in vivo = conditions: male, CD-1, mouse
Method: All of the formulations were freshly prepared prior to the dosing. […] Brain and plasma collection were carried out as described above. […] Plasma and brain tissue samples were processed by matching the dilutions of calibration standards of the respective tissues. […] The solutions were vortexed for 15 s and then allowed to sit at room temperature for 45 min. These mixtures were vortexed again for 10 s and centrifuged at 10,000× g for 10 min to collect the supernatant. Then, 2 μL of the sample was injected into the LC/MS/MS system for analysis. Chromatographic analysis was performed using a Thermo Scientific Vanquish UPLC system consisting of an analytical pump and an autosampler coupled with a […] spectrometer. […] The mobile phase was delivered as a gradient at a flow rate of 0.400 mL/min. […] The analyte was monitored using a ThermoScientific […] triple-quadrupole mass-spectrometric detector equipped with an electrospray interface, and operated in negative ion mode. The instrument was controlled by Thermo Scientific Xcalibur (version 4.2.47) software.

GCPII = target: T1, GCPII (Mus musculus, UniProt O35409); experiment: D-DOPA target engagement: ex vivo GCPII activity in mouse brain; conditions: for brain GCPII activity, effect in words: 30 min
T1 construct: from tissue
T1 sequence (O35409 whole entry): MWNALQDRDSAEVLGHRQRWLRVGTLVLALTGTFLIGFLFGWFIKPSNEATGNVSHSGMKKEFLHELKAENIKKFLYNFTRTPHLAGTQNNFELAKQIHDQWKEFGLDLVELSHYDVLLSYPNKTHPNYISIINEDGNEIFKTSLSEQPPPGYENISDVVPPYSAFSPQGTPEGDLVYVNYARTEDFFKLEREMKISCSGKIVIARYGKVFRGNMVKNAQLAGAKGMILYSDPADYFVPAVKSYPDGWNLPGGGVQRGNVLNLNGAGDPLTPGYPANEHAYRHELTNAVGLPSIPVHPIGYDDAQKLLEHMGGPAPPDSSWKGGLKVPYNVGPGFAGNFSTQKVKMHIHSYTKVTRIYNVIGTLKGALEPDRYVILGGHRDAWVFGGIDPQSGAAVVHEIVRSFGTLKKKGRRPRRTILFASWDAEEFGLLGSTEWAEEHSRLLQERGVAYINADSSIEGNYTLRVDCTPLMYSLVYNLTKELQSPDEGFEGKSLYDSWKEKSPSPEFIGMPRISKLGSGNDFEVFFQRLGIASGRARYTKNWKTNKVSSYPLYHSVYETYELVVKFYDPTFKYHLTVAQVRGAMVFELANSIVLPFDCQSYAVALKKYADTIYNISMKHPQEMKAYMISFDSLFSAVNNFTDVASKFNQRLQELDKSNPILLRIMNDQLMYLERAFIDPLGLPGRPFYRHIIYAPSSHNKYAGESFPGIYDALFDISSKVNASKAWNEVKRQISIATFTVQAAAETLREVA

[4] = male, CD-1, mouse, plasma, read-out: plasma levels

Chain of human recombinant GCPII (Q04609 whole entry): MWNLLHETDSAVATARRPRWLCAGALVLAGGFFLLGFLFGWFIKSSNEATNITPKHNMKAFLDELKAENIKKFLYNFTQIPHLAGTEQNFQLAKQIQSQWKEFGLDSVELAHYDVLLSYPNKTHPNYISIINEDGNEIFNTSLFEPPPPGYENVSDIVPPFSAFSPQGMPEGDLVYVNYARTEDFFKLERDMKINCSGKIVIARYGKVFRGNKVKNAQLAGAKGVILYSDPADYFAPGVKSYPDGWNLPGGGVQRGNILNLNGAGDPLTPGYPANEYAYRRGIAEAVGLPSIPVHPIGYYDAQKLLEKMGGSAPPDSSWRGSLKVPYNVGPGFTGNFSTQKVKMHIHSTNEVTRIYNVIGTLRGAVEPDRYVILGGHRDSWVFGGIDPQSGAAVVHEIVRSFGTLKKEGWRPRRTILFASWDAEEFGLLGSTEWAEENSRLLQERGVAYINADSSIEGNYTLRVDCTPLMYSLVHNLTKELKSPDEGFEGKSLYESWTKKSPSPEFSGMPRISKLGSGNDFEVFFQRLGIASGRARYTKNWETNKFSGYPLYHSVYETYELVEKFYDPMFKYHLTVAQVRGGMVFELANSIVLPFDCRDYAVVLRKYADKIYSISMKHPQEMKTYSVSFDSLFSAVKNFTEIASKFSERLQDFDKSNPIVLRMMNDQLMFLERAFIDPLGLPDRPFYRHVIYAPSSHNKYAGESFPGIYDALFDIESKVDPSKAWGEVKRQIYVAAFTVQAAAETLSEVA

- IC50 (human recombinant GCPII): > 100 µM
Compound: NC(Cc1ccc(=O)n(O)c1)C(=O)O (stereo not shown) [Compound 4]

- IC50 (human recombinant GCPII): 0.2 µM
- remaining at 1 h, 10 µM [1]: 100%
- remaining at 1 h, 10 µM (in vitro): 82%
- Dopamine release in spiked brain homogenate [2]: not observed
- brain levels [3]: ~ 1 nmol/g
- concentration at 30 min [3, 4]: 84.3 µM
- concentration at 1 h ([3]; male, CD-1, mouse, plasma, one hour post dose, read-out: plasma levels): 21.5 µM
- bioavailability (in vivo): 47.7%
- AUC(0-t) (in vivo; iv, 10 mg/kg): 30.5 µM·h
- clearance (in vivo; iv, 10 mg/kg, Cl): 28 mL/min/kg
- Cmax (in vivo; iv, 10 mg/kg, Cmax): 61.1 µM
- Tmax (in vivo; iv, 10 mg/kg, Tmax): 5 min
- clearance (in vivo; iv, 10 mg/kg, clearance (Cl)): 28 mL/min/kg
- half-life (in vivo; iv, 10 mg/kg, half-life (t1/2)): 21 min
- AUC(0-t) (in vivo; po, 50 mg/kg): 72.7 µM·h
- AUCbrain (in vivo; po, 50 mg/kg): 2.42 nmol/g
- Cmax (in vivo; po, 50 mg/kg): 1.74 µM
- Tmax (in vivo; po, 50 mg/kg): 15 min
- Kp (in vivo; po, 50 mg/kg, AUCBrain/Plasma ratio (brain penetration index)): 0.03
- Cmax (in vivo; po, 50 mg/kg, Cmax): 99 µM
- Tmax (in vivo; po, 50 mg/kg, Tmax): 30 min
- brain GCPII activity, effect in words (GCPII; PO 50 mg/kg + sodium benzoate IP 400 mg/kg, p < 0.001 vs untreated): significant inhibition
- brain GCPII activity, effect in words (GCPII; monotherapy PO 50 mg/kg, p < 0.01 vs untreated): significant inhibition
- inhibition at 50 mg/kg (GCPII; mouse, po): ~25%
Compound: N[C@H](Cc1ccc(O)c(O)c1)C(=O)O [Compound 10, D-DOPA]

- IC50 (human recombinant GCPII): 100 µM
Compound: N[C@@H](Cc1ccc(O)cc1)C(=O)O [Compound 2, Tyr]

- IC50 (human recombinant GCPII): 0.3 µM
- remaining at 1 h, 10 µM [1]: 56%
- remaining at 1 h, 10 µM (in vitro): 98%
- plasma levels following oral administration ([3]; 30 and 60 min): 6 to 7 µM
- brain levels [3]: < 0.01 nmol/g
- concentration at 30 min [3, 4]: 6.47 µM
Compound: O=C(O)/C=C/c1ccc(O)c(O)c1 [Compound 9, Caffeic Acid]

- IC50 (human recombinant GCPII): 4 µM
- decrease in inhibitory potency (human recombinant GCPII; versus L-DOPA): 6.7 fold
Compound: O=C(O)CCc1ccc(O)c(O)c1 [Compound 8]

- IC50 (human recombinant GCPII): 20 µM
Compound: CC(=O)N[C@@H](Cc1ccc(O)c(O)c1)C(=O)O [Compound 6]

- IC50 (human recombinant GCPII): 0.6 µM
- remaining at 1 h, 10 µM [1]: 64%
- remaining at 0.5 h, 10 µM (in vitro): 0%
- Dopamine release in spiked brain homogenate [2]: observed
- brain levels [3]: < 0.10 nmol/g
- concentration at 30 min [3, 4]: 3.74 µM
Compound: N[C@@H](Cc1ccc(O)c(O)c1)C(=O)O [Compound 1, L-DOPA, reference compound]

- IC50 (human recombinant GCPII): > 100 µM
Compound: C[C@](N)(Cc1ccc(O)c(O)c1)C(=O)O [Compound 5]

- IC50 (human recombinant GCPII): > 100 µM
Compound: NCCc1ccc(O)c(O)c1 [Compound 7, Dopamine, reference compound]

Source: paper PMC9608075 (Pharmaceutics, 2022)
